In ChEMBL document CHEMBL3044876, “The sodium channel gene in Tetranychus cinnabarinus (Boisduval): identification and expression analysis of a mutation associated with pyrethroid resistance” (2011) one finds LC50 and Ratio data, which are given here for one molecule.

≈ marks a conversion by molar mass, not a printed value.

What all share (format): functional
The test system of assay [1] is Tetranychus cinnabarinus. The assay is described as follows: Insecticidal activity against compound resistant Tetranychus cinnabarinus (carmine spider mite) in presence of piperonyl butoxide (PBO), diethyl maleate (DEM) and triphenyl phosphate (TPP).
In assay [2] the test system is Tetranychus cinnabarinus. The assay is described as follows: Resistance ratio, LC50 for insecticidal activity against compound resistant Tetranychus cinnabarinus (carmine spider mite) in presence of piperonyl butoxide (PBO), diethyl maleate (DEM) and triphenyl phosphate (TPP) to LC50 for insecticidal activity against compound susceptible Tetranychus cinnabarinus in presence of piperonyl butoxide (PBO), diethyl maleate (DEM) and triphenyl phosphate (TPP).

The test system of assay [3] is Tetranychus cinnabarinus. Description: Insecticidal activity against compound susceptible Tetranychus cinnabarinus (carmine spider mite).
Assay [4] has as its system Tetranychus cinnabarinus. Description: Synergism ratio, LC50 for insecticidal activity against compound resistant Tetranychus cinnabarinus (carmine spider mite) to LC50 for insecticidal activity against compound resistant Tetranychus cinnabarinus in presence of piperonyl butoxide (PBO), diethyl maleate (DEM) and triphenyl phosphate (TPP).

For orientation: LC50 means the concentration lethal to half of the exposed cells or organisms. Regarding `CC1(C)C(C(=O)OC(C#N)c2cccc(Oc3ccccc3)c2)C1(C)C` (centres undefined) [FENPROPATHRIN], the LC50 in assay [1] was determined as 70.3 mg/mL; in assay [3], 0.714 mg/mL (≈ 2040 µM). Also, the Ratio in assay [2] is listed as 98.5; in assay [4], 1.
